Laboratory results reported in PubChem BioAssay AID1745844 (Carcinogenic Potency Database (CPDB), 2022).
Activity calls are given as the source filed them. The rule behind the calls is not given here.

System: rodent lifetime carcinogenesis bioassay, tumor incidence TD50
Assay: carcinogenic potency in animals, long-term in vivo studies, CPDB compilation (AID 1745844)
[1] = rat, strain Fischer 344, females, by gavage, site: any site (literature study), lesion: several types, types named in the paper, dosed 103 weeks, study length 104 weeks

## OC(Cn1cncn1)(Cn1cncn1)c1ccc(F)cc1F
mouse, strain Charles River CD1, females, in feed, site: any site (literature study), lesion: several types, types named in the paper, dosed 104 weeks, study length 104 weeks
  carcinogen call: negative (inactive)
mouse, strain Charles River CD1, females, in feed, site: liver, lesion: hepatocellular adenoma, dosed 104 weeks, study length 104 weeks
  TD50: 129 mg/kg/day (inactive)
mouse, strain Charles River CD1, females, in feed, site: liver, lesion: hepatocellular carcinoma, dosed 104 weeks, study length 104 weeks
  carcinogen call: negative (inactive)
mouse, strain Charles River CD1, males, in feed, site: any site (literature study), lesion: several types, types named in the paper, dosed 104 weeks, study length 104 weeks
  TD50: 239 mg/kg/day (inactive)
mouse, strain Charles River CD1, males, in feed, site: liver, lesion: hepatocellular adenoma, dosed 104 weeks, study length 104 weeks
  TD50: 144 mg/kg/day (inactive)
mouse, strain Charles River CD1, males, in feed, site: liver, lesion: hepatocellular carcinoma, dosed 104 weeks, study length 104 weeks
  carcinogen call: negative (inactive)
rat, strain Charles River CD (Sprague-Dawley), females, in feed, site: any site (literature study), lesion: several types, types named in the paper, dosed 104 weeks, study length 104 weeks
  carcinogen call: negative (inactive)
rat, strain Charles River CD (Sprague-Dawley), females, in feed, site: liver, lesion: hepatocellular adenoma, dosed 104 weeks, study length 104 weeks
  TD50: 298 mg/kg/day (inactive)
rat, strain Charles River CD (Sprague-Dawley), females, in feed, site: liver, lesion: hepatocellular carcinoma, dosed 104 weeks, study length 104 weeks
  carcinogen call: negative (inactive)
rat, strain Charles River CD (Sprague-Dawley), females, in feed, site: mammary gland, lesion: adenoma, dosed 104 weeks, study length 104 weeks
  TD50: 412 mg/kg/day (inactive)
rat, strain Charles River CD (Sprague-Dawley), females, in feed, site: mammary gland, lesion: carcinoma, dosed 104 weeks, study length 104 weeks
  carcinogen call: negative (inactive)
rat, strain Charles River CD (Sprague-Dawley), females, in feed, site: mammary gland, lesion: fibroadenoma, dosed 104 weeks, study length 104 weeks
  carcinogen call: negative (inactive)
rat, strain Charles River CD (Sprague-Dawley), females, in feed, site: mammary gland, lesion: several types, types named in the paper, dosed 104 weeks, study length 104 weeks
  carcinogen call: negative (inactive)
rat, strain Charles River CD (Sprague-Dawley), males, in feed, site: adrenal medulla, lesion: pheochromocytoma, dosed 104 weeks, study length 104 weeks
  carcinogen call: negative (inactive)
rat, strain Charles River CD (Sprague-Dawley), males, in feed, site: any site (literature study), lesion: several types, types named in the paper, dosed 104 weeks, study length 104 weeks
  carcinogen call: negative (inactive)
rat, strain Charles River CD (Sprague-Dawley), males, in feed, site: liver, lesion: hepatocellular adenoma, dosed 104 weeks, study length 104 weeks
  TD50: 80.7 mg/kg/day

## Cc1c(-c2cnccn2)ssc1=S
rat, strain Charles River CD (Sprague-Dawley), females, by gavage, site: liver, lesion: one or several types, types not named, dosed 52 weeks, study length 52 weeks
  carcinogen call: negative (inactive)
rat, strain Charles River CD (Sprague-Dawley), males, by gavage, site: liver, lesion: one or several types, types not named, dosed 52 weeks, study length 52 weeks
  carcinogen call: negative (inactive)

## OCc1ccccc1
mouse, strain B6C3F1, females, by gavage, site: any site (literature study), lesion: several types, types named in the paper, dosed 103 weeks, study length 104 weeks
  TD50: 57500 mg/kg/day (inactive)
mouse, strain B6C3F1, females, by gavage, site: liver, lesion: hepatocellular adenoma + hepatocellular carcinoma + neoplastic nodule, dosed 103 weeks, study length 104 weeks
  TD50: 1040 mg/kg/day
mouse, strain B6C3F1, males, by gavage, site: adrenal gland, lesion: cortical adenoma, dosed 103 weeks, study length 104 weeks
  TD50: 1620 mg/kg/day (inactive)
mouse, strain B6C3F1, males, by gavage, site: liver, lesion: hepatocellular adenoma + hepatocellular carcinoma + neoplastic nodule, dosed 103 weeks, study length 104 weeks
  TD50: 588 mg/kg/day
mouse, strain B6C3F1, males, by gavage, site: lung, lesion: alveolar/bronchiolar adenoma + alveolar/bronchiolar carcinoma, dosed 103 weeks, study length 104 weeks
  TD50: 546 mg/kg/day
[1]
  TD50: 885 mg/kg/day (inactive)
rat, strain Fischer 344, males, by gavage, site: mammary gland, lesion: adenoma, NOS + fibroadenoma, dosed 103 weeks, study length 104 weeks
  TD50: 1140 mg/kg/day (inactive)
rat, strain Fischer 344, males, by gavage, site: mammary gland, lesion: fibroadenoma, dosed 103 weeks, study length 104 weeks
  TD50: 1380 mg/kg/day

## c1ccoc1
mouse, strain B6C3F1, females, by gavage, site: adrenal medulla + liver, lesion: pheochromocytoma, benign + hepatocellular adenoma + hepatocellular carcinoma, dosed 104 weeks, study length 105 weeks
  TD50: 2.26 mg/kg/day
mouse, strain B6C3F1, females, by gavage, site: adrenal medulla, lesion: pheochromocytoma, benign, dosed 104 weeks, study length 105 weeks
  TD50: 36 mg/kg/day
mouse, strain B6C3F1, females, by gavage, site: any site (literature study), lesion: several types, types named in the paper, dosed 104 weeks, study length 105 weeks
  TD50: 2.81 mg/kg/day
mouse, strain B6C3F1, females, by gavage, site: forestomach, lesion: squamous-cell papilloma, dosed 104 weeks, study length 105 weeks
  TD50: 23.8 mg/kg/day
mouse, strain B6C3F1, females, by gavage, site: liver, lesion: carcinoma + hepatocellular carcinoma, dosed 104 weeks, study length 105 weeks
  TD50: 6.85 mg/kg/day
mouse, strain B6C3F1, females, by gavage, site: liver, lesion: hepatocellular adenoma + hepatocellular carcinoma + neoplastic nodule, dosed 104 weeks, study length 105 weeks
  TD50: 2.19 mg/kg/day
mouse, strain B6C3F1, females, by gavage, site: liver, lesion: hepatocellular adenoma + hepatocellular carcinoma, dosed 104 weeks, study length 105 weeks
  TD50: 2.19 mg/kg/day
mouse, strain B6C3F1, females, by gavage, site: liver, lesion: hepatocellular adenoma, dosed 104 weeks, study length 105 weeks
  TD50: 2.26 mg/kg/day
mouse, strain B6C3F1, females, by gavage, site: lung, lesion: alveolar/bronchiolar adenoma + alveolar/bronchiolar carcinoma, dosed 104 weeks, study length 105 weeks
  TD50: 38.5 mg/kg/day
mouse, strain B6C3F1, males, by gavage, site: adrenal medulla + liver, lesion: pheochromocytoma, benign + hepatocellular adenoma + hepatocellular carcinoma, dosed 104 weeks, study length 105 weeks
  TD50: 3.6 mg/kg/day
mouse, strain B6C3F1, males, by gavage, site: adrenal medulla, lesion: pheochromocytoma, benign, dosed 104 weeks, study length 105 weeks
  TD50: 20.1 mg/kg/day
mouse, strain B6C3F1, males, by gavage, site: any site (literature study), lesion: several types, types named in the paper, dosed 104 weeks, study length 105 weeks
  TD50: 5.43 mg/kg/day
mouse, strain B6C3F1, males, by gavage, site: forestomach, lesion: squamous-cell papilloma, dosed 104 weeks, study length 105 weeks
  TD50: 64.6 mg/kg/day
mouse, strain B6C3F1, males, by gavage, site: liver, lesion: hepatocellular adenoma + hepatocellular carcinoma + neoplastic nodule, dosed 104 weeks, study length 105 weeks
  TD50: 3.6 mg/kg/day
mouse, strain B6C3F1, males, by gavage, site: liver, lesion: hepatocellular adenoma + hepatocellular carcinoma, dosed 104 weeks, study length 105 weeks
  TD50: 3.6 mg/kg/day
mouse, strain B6C3F1, males, by gavage, site: liver, lesion: hepatocellular adenoma, dosed 104 weeks, study length 105 weeks
  TD50: 4.02 mg/kg/day
mouse, strain B6C3F1, males, by gavage, site: liver, lesion: hepatocellular carcinoma, dosed 104 weeks, study length 105 weeks
  TD50: 5.13 mg/kg/day
mouse, strain B6C3F1, males, by gavage, site: lung, lesion: alveolar/bronchiolar adenoma + alveolar/bronchiolar carcinoma, dosed 104 weeks, study length 105 weeks
  TD50: 21.5 mg/kg/day
mouse, strain B6C3F1, males, by gavage, site: lung, lesion: alveolar/bronchiolar adenoma, dosed 104 weeks, study length 105 weeks
  TD50: 18.2 mg/kg/day
mouse, strain B6C3F1, males, by gavage, site: multiple organs, lesion: malignant lymphoma, histiocytic type + malignant lymphoma, mixed type, dosed 104 weeks, study length 105 weeks
  TD50: 11 mg/kg/day
[1]
  TD50: 2.83 mg/kg/day
rat, strain Fischer 344, females, by gavage, site: liver + multiple organs, lesion: cholangiocarcinoma + hepatocellular adenoma + hepatocellular carcinoma + mononuclear-cell leukemia, dosed 103 weeks, study length 104 weeks
  TD50: 0.543 mg/kg/day
rat, strain Fischer 344, females, by gavage, site: liver, lesion: cholangiocarcinoma, dosed 103 weeks, study length 104 weeks
  TD50: 0.395 mg/kg/day
rat, strain Fischer 344, females, by gavage, site: liver, lesion: hepatocellular adenoma + hepatocellular carcinoma + neoplastic nodule, dosed 103 weeks, study length 104 weeks
  TD50: 11.2 mg/kg/day
rat, strain Fischer 344, females, by gavage, site: liver, lesion: hepatocellular adenoma + hepatocellular carcinoma, dosed 103 weeks, study length 104 weeks
  TD50: 11.2 mg/kg/day
rat, strain Fischer 344, females, by gavage, site: liver, lesion: hepatocellular adenoma, dosed 103 weeks, study length 104 weeks
  TD50: 11.8 mg/kg/day
rat, strain Fischer 344, females, by gavage, site: multiple organs, lesion: mononuclear-cell leukemia, dosed 103 weeks, study length 104 weeks
  TD50: 5.84 mg/kg/day
rat, strain Fischer 344, females, by gavage, site: urinary bladder, lesion: transitional-cell papilloma, dosed 103 weeks, study length 104 weeks
  TD50: 50.7 mg/kg/day
rat, strain Fischer 344, males, by gavage, site: adrenal medulla, lesion: pheochromocytoma, benign, dosed 103 weeks, study length 104 weeks
  TD50: 12.7 mg/kg/day
rat, strain Fischer 344, males, by gavage, site: any site (literature study), lesion: several types, types named in the paper, dosed 103 weeks, study length 104 weeks
  TD50: 1.96 mg/kg/day
rat, strain Fischer 344, males, by gavage, site: liver + multiple organs, lesion: cholangiocarcinoma + hepatocellular adenoma + hepatocellular carcinoma + mononuclear-cell leukemia, dosed 103 weeks, study length 104 weeks
  TD50: 0.529 mg/kg/day
rat, strain Fischer 344, males, by gavage, site: liver, lesion: cholangiocarcinoma, dosed 103 weeks, study length 104 weeks
  TD50: 0.398 mg/kg/day
rat, strain Fischer 344, males, by gavage, site: liver, lesion: hepatocellular adenoma + hepatocellular carcinoma + neoplastic nodule, dosed 103 weeks, study length 104 weeks
  TD50: 2.31 mg/kg/day
rat, strain Fischer 344, males, by gavage, site: liver, lesion: hepatocellular adenoma + hepatocellular carcinoma, dosed 103 weeks, study length 104 weeks
  TD50: 2.31 mg/kg/day
rat, strain Fischer 344, males, by gavage, site: liver, lesion: hepatocellular adenoma, dosed 103 weeks, study length 104 weeks
  TD50: 3.1 mg/kg/day
rat, strain Fischer 344, males, by gavage, site: liver, lesion: hepatocellular carcinoma, dosed 103 weeks, study length 104 weeks
  TD50: 6.18 mg/kg/day
rat, strain Fischer 344, males, by gavage, site: multiple organs, lesion: mononuclear-cell leukemia, dosed 103 weeks, study length 104 weeks
  TD50: 4.64 mg/kg/day
rat, strain Fischer 344, males, by gavage, site: preputial gland, lesion: adenoma + adenoma, bilateral, dosed 103 weeks, study length 104 weeks
  TD50: 21.5 mg/kg/day
rat, strain Fischer 344, males, by gavage, site: skin, lesion: keratoacanthoma, dosed 103 weeks, study length 104 weeks
  TD50: 16.4 mg/kg/day
rat, strain Fischer 344, males, by gavage, site: subcutaneous tissue, lesion: fibroma, dosed 103 weeks, study length 104 weeks
  TD50: 18.1 mg/kg/day
rat, strain Fischer 344, males, by gavage, site: testis, lesion: interstitial-cell adenoma, dosed 103 weeks, study length 104 weeks
  TD50: 3.14 mg/kg/day

## CN(C)CCN(Cc1cccs1)c1ccccc1
rat, strain Fischer 344, females, in drinking water, site: liver, lesion: several types, types named in the paper, dosed 82 weeks, study length 130 weeks
  carcinogen call: negative (inactive)
rat, strain Fischer 344, females, in drinking water, site: thyroid follicle, lesion: several types, types named in the paper, dosed 82 weeks, study length 130 weeks
  TD50: 487 mg/kg/day (inactive)
rat, strain Fischer 344, males, in drinking water, site: liver, lesion: several types, types named in the paper, dosed 82 weeks, study length 130 weeks
  carcinogen call: negative (inactive)
rat, strain Fischer 344, males, in drinking water, site: thyroid follicle, lesion: several types, types named in the paper, dosed 82 weeks, study length 130 weeks
  carcinogen call: negative (inactive)
